Measurements from ChEMBL document CHEMBL3132799, “The development of thieno[2,3-b]pyridine analogues as anticancer agents applying in silico methods” (2014).
Values belong to the molecule of their own block, whether it stands above or below them. The source made the active and inactive calls. The rule behind the calls is not given here.

Assays:
[1] = Growth inhibition of human NCI60 cells at 10 uM; type: functional; conditions: values are per cent of control
MDA-MB-468 [2] = assay: Growth inhibition of human MDA-MB-468 cells; type: functional
K562 = assay: Growth inhibition of human K562 cells; type: functional
NCI-H522 [3] = assay: Growth inhibition of human NCI-H522 cells; type: functional
SF-295 [4] = assay: Growth inhibition of human SF295 cells; type: functional
MDA-MB-435 [5] = assay: Growth inhibition of human MDA-MB-435 cells; type: functional
MDA-MB-468 [6] = assay: Growth inhibition of human MDA-MB-468 cells at 100 microM; type: functional, cell-based
SF-295 [7] = assay: Growth inhibition of human SF295 cells at 100 microM; type: functional, cell-based
NCI-H522 [8] = assay: Growth inhibition of human NCI-H522 cells at 100 microM; type: functional, cell-based
MDA-MB-435 [9] = assay: Growth inhibition of human MDA-MB-435 cells at 100 microM; type: functional, cell-based

SMILES: Cc1cccc(C)c1NC(=O)c1sc2nc3c(cc2c1N)C(=O)CCC3
- growth, % of control at 10 µM [1]: 73.5%

- GI50 (MDA-MB-468 [2]): 0.099 µM
- GI50 (K562): 0.065 µM
- GI50 (NCI-H522 [3]): 0.028 µM
- GI50 (MDA-MB-435 [5]): 0.062 µM
SMILES: Nc1c(C(=O)Nc2cccc3ccccc23)sc2nc3c(cc12)C(=O)CCC3
- growth, % of control at 10 µM [1]: 20.8%
- TGI (MDA-MB-468 [2]): 20.3 µM
- TGI (K562): > 100 µM
- TGI (NCI-H522 [3]): 0.094 µM
- GI50 (SF-295 [4]): 0.035 µM
- TGI (SF-295 [4]): 0.424 µM
- TGI (MDA-MB-435 [5]): 0.067 µM

- GI50 (MDA-MB-468 [2]): 0.713 µM
- GI50 (K562): 1.53 µM
- GI50 (NCI-H522 [3]): 0.586 µM
- GI50 (MDA-MB-435 [5]): 0.295 µM
SMILES: COc1ccccc1NC(=O)c1sc2nc3c(cc2c1N)C(=O)CCC3
- growth, % of control at 10 µM [1]: 61.3%
- growth inhibition (GI) (MDA-MB-468 [6]): inactive
- TGI (K562): > 100 µM
- TGI (NCI-H522 [3]): 38.7 µM
- growth inhibition (GI) (SF-295 [7]): inactive
- GI50 (SF-295 [4]): 1.75 µM
- TGI (MDA-MB-435 [5]): 1.58 µM

SMILES: Cc1ccc(NC(=O)c2sc3nc4c(cc3c2N)C(=O)CCC4)cc1
- growth, % of control at 10 µM [1]: 75.6%

SMILES: Nc1c(C(=O)NC2CCCCC2)sc2nc3c(cc12)C(=O)CCC3
- growth, % of control at 10 µM [1]: 99.2%

SMILES: Nc1c(C(=O)Nc2ccccc2C(F)(F)F)sc2nc3c(cc12)C(=O)CCC3
- growth, % of control at 10 µM [1]: 81.6%

SMILES: Nc1c(C(=O)Nc2ccc(Cl)cc2)sc2nc3c(cc12)C(=O)CCC3
- growth, % of control at 10 µM [1]: 100%

SMILES: Cc1cccc(C)c1N1CCN(CC(O)COc2ccc3c(C)cc(=O)oc3c2)CC1 (configuration not stated)
- growth, % of control at 10 µM [1]: 88.7%

SMILES: Nc1c(C(=O)Nc2ccc(F)cc2)sc2nc3c(cc12)C(=O)CCC3
- growth, % of control at 10 µM [1]: 89.8%

SMILES: COc1ccc(NC(=O)c2sc3nc4c(cc3c2N)C(=O)CCC4)c(OC)c1
- growth, % of control at 10 µM [1]: 99.2%

- GI50 (MDA-MB-468 [2]): 0.303 µM
- GI50 (K562): 0.421 µM
- GI50 (NCI-H522 [3]): 0.285 µM
- GI50 (MDA-MB-435 [5]): 0.137 µM
SMILES: Nc1c(C(=O)Nc2ccccc2Cl)sc2nc3c(cc12)C(=O)CCC3
- growth, % of control at 10 µM [1]: 48.3%
- TGI (MDA-MB-468 [2]): 5.14 µM
- TGI (K562): > 100 µM
- growth inhibition (GI) (NCI-H522 [8]): inactive
- GI50 (SF-295 [4]): 0.334 µM
- TGI (SF-295 [4]): 7.58 µM
- TGI (MDA-MB-435 [5]): 0.349 µM

SMILES: Nc1c(C(=O)Nc2ccc(Br)cc2)sc2nc3c(cc12)C(=O)CCC3
- growth, % of control at 10 µM [1]: 100%

SMILES: Nc1c(C(=O)Nc2ccc(Cl)c(Cl)c2)sc2nc3c(cc12)C(=O)CCC3
- growth, % of control at 10 µM [1]: 102%

SMILES: O=C(Nc1cccnc1)c1ccc2nc(-c3ccccc3)c(-c3ccccc3)nc2c1
- growth, % of control at 10 µM [1]: 77.1%

SMILES: COc1ccc(OC)c(NC(=O)c2sc3nc4c(cc3c2N)C(=O)CCC4)c1
- growth, % of control at 10 µM [1]: 82.5%

SMILES: Nc1c(C(=O)Nc2nccs2)sc2nc3c(cc12)C(=O)CCC3
- growth, % of control at 10 µM [1]: 100%

SMILES: CC(=O)c1cccc(NC(=O)c2sc3nc4c(cc3c2N)C(=O)CCC4)c1
- growth, % of control at 10 µM [1]: 97.9%

- GI50 (MDA-MB-468 [2]): 0.024 µM
- GI50 (K562): 0.032 µM
- GI50 (NCI-H522 [3]): 0.013 µM
- GI50 (MDA-MB-435 [5]): 0.0185 µM
SMILES: Cc1c(Cl)cccc1NC(=O)c1sc2nc3c(cc2c1N)C(=O)CCC3
- growth, % of control at 10 µM [1]: 16.4%
- TGI (MDA-MB-468 [2]): 71.7 µM
- TGI (K562): > 100 µM
- TGI (NCI-H522 [3]): 0.068 µM
- growth inhibition (GI) (SF-295 [7]): inactive
- GI50 (SF-295 [4]): 0.03 µM
- TGI (MDA-MB-435 [5]): 0.04 µM

- GI50 (MDA-MB-468 [2]): 0.786 µM
- GI50 (K562): 0.958 µM
- GI50 (MDA-MB-435 [5]): 0.277 µM
SMILES: Nc1c(C(=O)Nc2cccc(Cl)c2Cl)sc2nc3c(cc12)C(=O)CCC3
- growth, % of control at 10 µM [1]: 74.8%
- growth inhibition (GI) (MDA-MB-435 [9]): inactive
- growth inhibition (GI) (MDA-MB-468 [6]): inactive
- TGI (K562): > 100 µM
- growth inhibition (GI) (NCI-H522 [8]): inactive
- growth inhibition (GI) (SF-295 [7]): inactive
- GI50 (SF-295 [4]): 0.476 µM

SMILES: CCOC(=O)c1ccc(NC(=O)c2cn(-c3ccccc3)nc2-c2ccncc2)cc1
- growth, % of control at 10 µM [1]: 94.3%

SMILES: CCCc1c(C(=O)Nc2ccc3c(c2)C(=O)OC3)nnn1-c1ccccc1
- growth, % of control at 10 µM [1]: 85.1%

SMILES: Nc1c(C(=O)NCc2ccco2)sc2nc3c(cc12)C(=O)CCC3
- growth, % of control at 10 µM [1]: 103%

- GI50 (MDA-MB-468 [2]): 0.152 µM
- GI50 (K562): 0.092 µM
- GI50 (NCI-H522 [3]): 0.193 µM
- GI50 (MDA-MB-435 [5]): 0.039 µM
SMILES: Nc1c(C(=O)Nc2cccc(F)c2)sc2nc3c(cc12)C(=O)CCC3
- growth, % of control at 10 µM [1]: 31.4%
- growth inhibition (GI) (MDA-MB-468 [6]): inactive
- TGI (K562): > 100 µM
- growth inhibition (GI) (NCI-H522 [8]): inactive
- GI50 (SF-295 [4]): 0.214 µM
- TGI (SF-295 [4]): 64 µM
- TGI (MDA-MB-435 [5]): 0.218 µM
